Laboratory results: patent US20210388022A1, “SUBSTITUTED GUANIDINO AND AMIDINO REAGENTS AND THE USE THEREOF FOR PROTEIN DENATURATION” (Waters Technologies Corporation, priority 2020, published 2021)
Structures can show the parent of a compound that is named as a salt.

Experiments:
[1] = tested on: Polyclonal rabbit IgG (rIgG); assay: Native fluorescence assay of rabbit IgG denaturation (ex 280 nm, emission ratio 376/360 nm); assay type: biochemical; settings: for denaturing power (in words): 5 mM concentration and lower temperatures
Method: To determine the effectiveness of the guanidine and amidine reagents from the table of FIG. 8, a native fluorescence assay was established using rabbit IgG. Upon excitation at 280 nm, emission was measured ratiometrically at two wavelengths 376 and 360 nm.
Fluorescence spectra were acquired at an excitation wavelength of 280 nm and emission intensity is reported as a ratio of 376 nm intensity divided by 360 nm intensity. An increase in 1376/1360 denotes a change in the microenvironment of tryptophan residues—specifically, their change from a hydrophobically surrounded native state to a solvent exposed denatured state.
The IgG sample was subjected to concentrations of 0.5, 5, and 50 mM and temperatures of either ambient, 50° C., 70° C., or 90° C. […] Fluorescence was performed with an excitation wavelength of 280 nm.
Polyclonal rabbit IgG (rIgG) was used as a test protein to evaluate the denaturation power of various reagents. The rIgG protein was dissolved and diluted to a concentration of 0.25 mg/mL with water, while also being subjected to the chemical compound of interest and an incubation at either room temperature, 50° C., 70° C., or 90° C. To generate a positive control for complete denaturation, the rIgG sample was subjected to room temperature incubations with guanidine hydrochloride at 0 and up to 8M concentrations. Native fluorescence of the resulting sample was thereafter measured using an excitation wavelength of 280 nm. Emission intensities at 376 and 360 nm were subsequently detected and reported as a ratio as a sensitive measure of rIgG denaturation and a change in the local environment of tryptophan residues.
Fluorescence intensity ratios obtained after incubation with reagent #1, reagent #2, and reagent #3 and either ambient, 50° C., 70° C., or 90° C. temperatures are provided in FIG. 3. Likewise, fluorescence intensity ratios obtained after incubation with reagent #4, reagent #5, and reagent #6 and either ambient, 50° C., 70° C., or 90° C. temperatures are provided in FIG. 4. In all experiments, the substituted guanidine and amidines were titrated to a neutral pH and their protonated ionization states prior to being incubated with protein sample.

[2] = biological target: T1, Orencia® (abatacept), a glycosylated fusion protein (Homo sapiens, UniProt P16410, C103S); assay: Denaturation then PNGase F deglycosylation of abatacept, intact protein RPLC-MS; assay type: biochemical; settings: 5 mM reagent, short 90° C. incubation, no desalting, PNGase F at 50° C.
T1 construct: modified human IgG1 Fc (hinge-CH2-CH3) fusion partner; purchased Bristol-Myers Squibb
T1 sequence (P16410 with tags, fused parts or gaps limits assumed, stated change not applied): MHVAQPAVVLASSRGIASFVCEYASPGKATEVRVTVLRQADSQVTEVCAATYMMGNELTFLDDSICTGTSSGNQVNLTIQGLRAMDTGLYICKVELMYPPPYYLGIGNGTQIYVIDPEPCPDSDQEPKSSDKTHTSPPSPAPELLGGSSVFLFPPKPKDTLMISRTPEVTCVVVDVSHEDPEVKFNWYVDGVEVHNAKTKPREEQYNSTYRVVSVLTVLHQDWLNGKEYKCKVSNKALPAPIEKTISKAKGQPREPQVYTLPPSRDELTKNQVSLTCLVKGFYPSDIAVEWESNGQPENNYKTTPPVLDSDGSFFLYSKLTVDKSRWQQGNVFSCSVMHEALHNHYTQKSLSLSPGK
Method: An Orencia® stock solution (20 mg/mL) was diluted 10 times with water to a concentration of 2 mg/mL, followed by the addition of 10 μL diluted sample into three 1 mL polypropylene tubes. Four (4) μL of 50 mM guanidino reagents, tetramethylguanidine (reagent #1), t-butyl tetramethylguanidine (reagent #2), and trazabicyclodecene (reagent #3), were added into each tube, separately. Finally, 8 μL of 50 mM HEPES, pH 7.9 buffer was transferred into each tube along with 16.4 μL of water.
The contents of each well were subsequently mixed by aspiration. Each sample was then incubated at 90° C., 3 minutes for denaturation and then removed from the heating block to cool at room temperature for 3 minutes. Each denatured glycoprotein sample was treated with 1.6 μL of GlycoWorks Rapid PNGase F at 50° C. for 5 minutes. Aliquots containing 10 μL of each deglycosylated sample were submitted for intact protein analysis, while the remaining 30 μL samples were subjected to RapiFluor-MS™ labeling and released glycan analysis (see details in Example 3).
Additionally, two controls were applied. For a positive control (FIG. 5D), 5 μL of Orencia® stock solution was mixed with 45 μL of 8M guanidine hydrochloride at room temperature, followed by desalting with a Thermo Zeba spin column. The resulting, 10 μL desalted sample was mixed with 8 μL of 50 mM HEPES, pH 7.9, 20.4 μL of water and 1.6 μL of GlycoWorks Rapid PNGase F before being incubated at 50° C. for 5 min to perform deglycosylation. Ten (10) μL of this deglycosylated protein, as well as 10 μL of 2 mg/mL Orencia® solution without denaturation, were tested as positive and negative controls of intact protein analysis. LCMS settings and parameters used for intact protein analysis are listed below in Table 1.

[3] = biological target: T2, Orencia® (abatacept) (Homo sapiens, UniProt P16410, C103S); assay: N-glycan release and RapiFluor-MS labeling after denaturation, LC-FLR-MS profile; settings: 5 mM tetramethylguanidine denatured Orencia®, no desalting
T2 construct: modified human IgG1 Fc (hinge-CH2-CH3) fusion partner; purchased Bristol-Myers Squibb
T2 sequence (P16410 with tags, fused parts or gaps limits assumed, stated change not applied): as above
Method: In the example of FIG. 6, abatacept was denatured with 5 mM tetramethylguanidine at a 90° C. and incubated at 50° C. with PNGase F. The resulting N-glycosylamines were there derivatized with RapiFluor-MS™ and cleaned up with solid phase extraction using a GlycoWorks RapiFluor-MS™ N-glycan kit (according to manufacturer recommendations; Waters Technologies Corporation, Milford, Mass.). RapiFluor-MS™ labeled N-glycans from this tetramethylguanidinium denatured sample were thereafter profiled by […].
Thirty (30) μL of deglycosylated protein was labeled with 12 μL of RapiFluor-MS™ solution (68.7 mg/mL in DMF) for 5 minutes at room temperature, followed by dilution with 358 μL of acetonitrile for SPE clean-up. The total of 400 μL mixed solution was transferred to a pre-conditioned HILIC μElution SPE plate staged for operation on a positive pressure manifold with 3 psi pressurization. Each sample was loaded onto the plate and then twice washed with 600 μL of 1:9:90 (v/v/v) formic acid/water/acetonitrile. Finally, released glycans were eluted from individual wells with three, 30 μL of 200 mM ammonium acetate in 5% acetonitrile. Eluate was collected and transferred in LC vials for analysis. LC-FLR-MS settings and parameters used in these experiments are listed below in Table 2.

SMILES | fluorescence intensity ratio of rIgG ([1]; 1% (w/v) RapiGest SF [~24 mM], suggests only partial denaturation) | denaturing power (in words) [1] | extent of PNGase F deglycosylation of abatacept after denaturation [2] | interference in LC-FLR-MS data of RapiFluor-MS labeled N-glycans [3] | fluorescence intensity ratio of rIgG ([1]; 8M guanidine, room temperature, native state rIgG approximately 1.3)
CCCCCCCCCCCC1(C)OCC(COCCCS(=O)(=O)[O-])O1.[Na+] (stereo not drawn) [RapiGest SF] | approximately 1.4 | – | – | – | –
CN(C)C(=N)N(C)C [Reagent 1, 1,1,3,3-tetramethylguanidine] | – | significantly reduced | as extensively deglycosylated as the guanidinium hydrochloride denatured controls | no significant interferences | –
CN(C)C(=NC(C)(C)C)N(C)C [Reagent 2, 2-tert-butyl-1,1,3,3-tetramethylguanidine] | – | significantly reduced | as extensively deglycosylated as the guanidinium hydrochloride denatured controls | – | –
C1CN=C2NCCCN2C1 [Reagent 3, 1,5,7-triazabicyclo[4.4.0]dec-5-ene] | – | significantly reduced | as extensively deglycosylated as the guanidinium hydrochloride denatured controls | – | –
N=C(N)N [guanidine, guanidine hydrochloride, reference compound] | – | – | – | – | approximately 1.6
